Source: patent US8383642B2, “Spiropiperidine compounds” (Eli Lilly and Company, priority 2009, dated 2013)

Key:
PPARδ = target: T1, PPARδ (Homo sapiens, UniProt Q03181); assay: PPARδ binding assay (SPA); settings: concentrations up to 10 μM
T1 construct: made in house; host or cells: HEK293 (cell lysates)
T1 sequence (Q03181 1-441): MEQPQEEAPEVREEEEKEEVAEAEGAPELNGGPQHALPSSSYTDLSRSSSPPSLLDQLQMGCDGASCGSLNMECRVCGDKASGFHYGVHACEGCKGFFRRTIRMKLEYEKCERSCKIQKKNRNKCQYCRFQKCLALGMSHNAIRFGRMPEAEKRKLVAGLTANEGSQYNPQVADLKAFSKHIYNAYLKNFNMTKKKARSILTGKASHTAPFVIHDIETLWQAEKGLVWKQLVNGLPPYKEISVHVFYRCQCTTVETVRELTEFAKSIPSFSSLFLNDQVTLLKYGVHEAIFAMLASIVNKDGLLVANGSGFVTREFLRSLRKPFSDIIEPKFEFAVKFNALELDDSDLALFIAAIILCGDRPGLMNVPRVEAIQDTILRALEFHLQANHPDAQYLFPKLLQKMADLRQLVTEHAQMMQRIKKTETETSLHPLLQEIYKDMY
T1 sequence (P19793 1-462 partner): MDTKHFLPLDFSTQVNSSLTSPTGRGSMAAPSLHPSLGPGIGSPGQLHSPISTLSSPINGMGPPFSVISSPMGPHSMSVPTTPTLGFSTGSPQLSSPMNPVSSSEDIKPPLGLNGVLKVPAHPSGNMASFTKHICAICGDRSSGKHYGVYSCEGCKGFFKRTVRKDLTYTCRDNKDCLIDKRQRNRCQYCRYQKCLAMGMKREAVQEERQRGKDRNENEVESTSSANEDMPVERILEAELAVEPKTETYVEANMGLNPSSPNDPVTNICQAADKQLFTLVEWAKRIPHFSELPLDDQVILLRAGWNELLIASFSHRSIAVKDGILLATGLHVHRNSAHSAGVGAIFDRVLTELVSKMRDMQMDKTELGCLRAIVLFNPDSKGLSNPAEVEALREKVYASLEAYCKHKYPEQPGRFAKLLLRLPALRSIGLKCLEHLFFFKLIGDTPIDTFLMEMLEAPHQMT
Protocol: Because GPR40 is known to be activated by ligands to PPARγ exemplified compounds are examined in PPARα, PPARδ, and PPARγ binding and functional assays to determine the selectivity of exemplified compounds for GPR40. Compounds exemplified herein are tested essentially as described below for PPAR binding and generally have binding values greater than 1000 nM with 10 μM concentrations of test compound and are thus considered negative for PPAR activity.
Binding affinities of compounds for the PPAR α, δ, and γ receptors are assessed using Scintillation Proximity Assay (SPA) technology. Biotinylated oligonucleotide Direct Repeat 2 (DR2) is used for binding the receptors to Yttrium silicate streptavidin-coated SPA beads. […] Non-specific binding is determined in the presence of 10,000 nM of the unlabeled PPAR α/δ dual agonist reference compound for the alpha and delta receptor assays and the PPARγ agonist reference compound for the gamma receptor assay. The binding reaction (100 μl per well in a 96 well [Costar 3632] plate) is incubated for 10 h and counted disintegration per minutes (dpm) on a Wallac Microbeta. Receptor binding affinity (IC50) for the compounds is determined by fitting an 11 point concentration-response curve with a 4-parameter logistic equation. Ki, is determined from the IC50 using the Cheng-Prussoff equation and Kd determined by saturation binding. […]

Gal4 PPARα = target: T2, Gal4 PPARα (Homo sapiens, UniProt Q07869); assay: Gal4 PPARα reporter functional assay (CTF); assay type: cell-based; settings: examined up to 10 μM; CV1 cells; luciferase
T2 construct: expressed in transfected cells; host or cells: CV1 (African green monkey kidney)
T2 sequence (Q07869 239-466 limits assumed): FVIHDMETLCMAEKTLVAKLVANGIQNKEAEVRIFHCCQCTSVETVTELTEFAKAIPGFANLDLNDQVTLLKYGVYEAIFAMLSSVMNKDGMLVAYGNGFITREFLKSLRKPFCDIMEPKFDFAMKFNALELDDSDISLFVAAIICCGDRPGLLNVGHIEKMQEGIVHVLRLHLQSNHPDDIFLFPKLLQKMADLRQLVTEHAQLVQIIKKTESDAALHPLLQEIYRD
From the text: Gal4 PPARα, Gal4 PPARδ, and PPARγ reporter functional assays are also used to monitor the selectivity of exemplified compounds. CV1 cells, which are derived from the renal tissue of an African green monkey, are transfected with various receptor and reporter plasmids using Fugene. For the Gal4 PPARα and PPARδ assays, a reporter plasmid containing five tandem copies of the yeast transcription protein Gal4 response element, cloned upstream of a firefly luciferase gene driven by the major late promoter of adenovirus, is transfected together with a Simian Virus 40 (SV40) driven plasmid constitutively expressing a hybrid protein containing the Gal4 DNA binding domain (DBD), and either the PPARα or PPARδ ligand binding. For the PPARγ assay, plasmids encoding PPARγ and RXRα, both driven by a cytomegalovirus (CMV) promoter are transfected together with a plasmid containing luciferase reporter cDNA driven by the TK promoter and a receptor response element (2×PPRE). Cells are transfected in T225 cm^2 cell culture flasks in DMEM media with 5% charcoal-stripped FBS. […] After 24 hours incubation with compounds, cells are lysed and luciferase activity is determined as a measure of receptor activation by luminescence. […] The maximum percent stimulation is determined versus maximum stimulation obtained with 10 μM of an appropriate PPAR agonist reference compound. […]

binding detected (PPARδ): no binding is detected | functional activation (Gal4 PPARα): No functional activation
SMILES: CC#C[C@@H](CC(=O)O)c1ccc(OCc2ccc(CN3CCC4(C=Cc5ccccc54)CC3)cc2)cc1 [Example 1, (3S)-3-(4-{[4-(1′H-Spiro[indene-1,4′-piperidin]-1′-ylmethyl)benzyl]oxy}phenyl)hex-4-ynoic acid]
